According to patent US20080015240A1, “Acid Salt of Benzimidazole Derivative and Crystal Thereof” (priority 2004, published 2008):
Converted amounts (≈) assume the structure as drawn. Structures can show the parent of a compound that is named as a salt.

Assays:
[1] = solubility according to the General Rules of the Japanese Pharmacopoeia 14th Edition; type: physicochemical; conditions: for solubility in Solution 1: Solution 1 of the Japanese Pharmacopoeia; for solubility in Solution 1 / solubility in Solution 2: 20±5° C. within 30 minutes; for solubility in Solution 2: Solution 2 of the Japanese Pharmacopoeia; for solubility in Water: powder shaken 30 seconds every 5 minutes at 20±5° C. within 30 minutes
Method: […]. In accordance with the General Rules of the Japanese Pharmacopoeia 14th Edition, solubility (μg/mL) herein refers to an amount of a substance dissolved in a solvent after the substance in powder is placed in the solvent and the sample is shaken strongly for 30 seconds every 5 minutes at 20±5° C. within 30 minutes.

[2] = order in stability among crystal forms by solvent-mediated transformation of a mixture of crystals; type: physicochemical; conditions: order may change depending on the solvent and temperature
From the text: The order in stability among the crystal forms of each acid salt can be examined by solvent-mediated transformation of a mixture of crystals, but the order may change depending on the solvent and temperature. […]. […] […].

solubility in Solution 1 ([1]; sulfate) [µg/mL] | solubility in Solution 2 ([1]; sulfate) [µg/mL] | solubility in Water ([1]; sulfate) [µg/mL] | relative stability of crystal form ([2]; sulfate) | SMILES | other results
7.6 | 74.0 | 0.1 | close to that of crystal-SA | Cc1cccc2scc(Cn3c(SCCCC(=O)O)nc4ccccc43)c12 [Crystal-SF, 4-(1-((4-methylbenzothiophen-3-yl)methyl)benzimidazol-2-ylthio)butanoic acid sulfate] | –
– | – | – | less stable than crystal-SF | Cc1cccc2scc(Cn3c(SCCCC(=O)O)nc4ccccc43)c12 [Crystal-SG, 4-(1-((4-methylbenzothiophen-3-yl)methyl)benzimidazol-2-ylthio)butanoic acid sulfate] | –

More lines, now with the values behind:

SMILES | solubility in Solution 1 ([1]; sulfate) [µg/mL] | solubility in Solution 2 ([1]; sulfate) [µg/mL] | solubility in Water ([1]; sulfate) [µg/mL] | relative stability of crystal form ([2]; sulfate) | other results
Cc1cccc2scc(Cn3c(SCCCC(=O)O)nc4ccccc43)c12 [Crystal A, 4-(1-((4-methylbenzothiophen-3-yl)methyl)benzimidazol-2-ylthio)butanoic acid, reference compound] | – | – | – | – | solubility in Solution 1 [1]: 2.5 µg/mL (≈ 6.3 µM); solubility in Solution 2 [1]: 1.9 µg/mL (≈ 4.79 µM)
Cc1cccc2scc(Cn3c(SCCCC(=O)O)nc4ccccc43)c12.Cl [Crystal-HB, 4-(1-((4-methylbenzothiophen-3-yl)methyl)benzimidazol-2-ylthio)butanoic acid hydrochloride] | – | – | – | – | relative stability of crystal form [2]: more stable than the other crystal forms
Cc1cccc2scc(Cn3c(SCCCC(=O)O)nc4ccccc43)c12 [Crystal-SA, 4-(1-((4-methylbenzothiophen-3-yl)methyl)benzimidazol-2-ylthio)butanoic acid sulfate] | 8.6 | 67.3 | – | – | –
Cc1cccc2scc(Cn3c(SCCCC(=O)O)nc4ccccc43)c12 [Crystal-SB, 4-(1-((4-methylbenzothiophen-3-yl)methyl)benzimidazol-2-ylthio)butanoic acid sulfate] | 19.8 | 24.2 | 0.8 | – | –
Cc1cccc2scc(Cn3c(SCCCC(=O)O)nc4ccccc43)c12 [Crystal-SC, 4-(1-((4-methylbenzothiophen-3-yl)methyl)benzimidazol-2-ylthio)butanoic acid sulfate] | 10.6 | 72.4 | 0.1 | more stable than the other four crystal forms | –
